Entries after “also recorded” stand apart in the source; their conditions may differ. Read-outs that look alike come from different tables or passages of the source.
How the values were obtained:
[1] = tested on: Lemna aequinoctialis Welv.; assay: Lemna phytotoxicity assay; conditions: seven days
Protocol: The assay was performed according to the modified protocol of Bremner. […] Sterilized conical flasks were inoculated with compounds with desired concentrations prepared from the stock solution and allowed to evaporate overnight. Each flask was inoculated with 20 mL of sterilized E-medium and ten Lemna aequinoctialis Welv. each containing a rosette of three fronds. Other flasks were supplemented with methanol serving as negative control and reference inhibitor, that is, phosphoroamide (a urease inhibitor already in commercial use) serving as positive control. The treatments were replicated three times and the flasks incubated at 30°C Fisons Fi-Totron 600 H growth cabinet for seven days, 9000 lux light intensity, 56 ± 10 rh (relative humidity), and 12 h day length. Growth of Lemna aequinocitalis in compound containing flask was determined by counting the number of fronds per dose and growth inhibition calculated with reference to negative control.

[2] = Viability of human neutrophils (WST-1); type: cell-based; conditions: isolated human neutrophils; human neutrophils 1 × 10^7 cells/mL; conc. 200 µg/mL
Protocol: Heparinized fresh venous blood was drawn from healthy volunteers in a local blood bank and the neutrophils were isolated by developed method of McLaughlin et al.. 45 The whole blood was mixed with Ficoll-Paque (Pharmacia Biotech Amersham, Uppsala). After sedimentation the unwanted red blood cells (RBCs) were layered as a buffy coat on the cushion of Ficoll (3.0 mL). It was then centrifuged for 30 min. at 1500 rpm, and supernatant was discarded. Further treated with hypotonic ammonium chloride solution (0.83%) to lyse RBCs. The preparation was then centrifuged and the neutrophils were washed with Modified Hank's Solution (MHS) and resuspended at a concentration of 1 × 10^7 cells/mL.
Isolated human neutrophils (1 × 10^7 cells/mL) were incubated first with test compounds for 30 min., and then after the addition of 0.25 mM WST-1 (Dojindo Laboratories Kumamoto, Japan) in water bath shaker at 37°C [18, 19]. After 3 hrs incubation, change in the absorbance was measured at 450 nm in 96-well plate by using microplate reader Spectra MAX 340 (Molecular Devices, CA, USA). The OD is the mean of the five experimental replicates. The percentage (%) cell viability was calculated by using the following formula: (1) Percentage (%) viability of cells =[…].

Jack bean urease = Jack bean urease (Canavalia ensiformis, UniProt P07374); assay: biochemical; conditions: for Type of inhibition / Kmapp / Vmaxapp: Urease (JB); for Kmapp: Km without inhibitor 2.5 mM; for Vmaxapp: Vmax without inhibitor 105
Protocol: (§1) Reaction mixtures comprising 25 μL of enzyme (Jack bean and Bacillus pasteurii ureases) solution and 55 μL of buffers containing urea (2–24 mM for jack bean and Bacillus pasteurii ureases) were incubated with 5 μL of test compounds at 30°C for 4.15 min in 96-well plates. The increasing absorbance at 560 nm was measured after 10 min, using a microplate reader (Molecular Devices, USA). All reactions were performed in triplicate in a final volume of […]. The results (change in absorbance per min.) were processed by using SoftMax Pro software (Molecular Devices, USA). All the assays were performed at pH 6.8 (3 mM sodium phosphate buffer) and 7 μg of phenol red per mL as indicator [10]. Percentage inhibitions were calculated from the formula 100 − (ODtestwell/ODcontrol) × 100. Thiourea was used as the standard inhibitor of urease.
(§2) The concentration of tested compounds that inhibited the hydrolysis of substrates (Jack bean urease and Bacillus pasteurii ureases) by 50% (IC50) was determined by monitoring the effect of various concentrations of the compounds in the assays on the inhibition values. The IC50 (inhibitor conc. that inhibits 50% activity of both enzymes) values were then calculated using the EZ-Fit Enzyme Kinetics program (Perrella Scientific Inc., Amherst, USA).
(§3) Dissociation constant/inhibition constant (K i) were determined by the interpretation of Dixon plot. Lineweaver-Burk plot and their secondary replots using initial velocities obtained over a substrate concentration range between 2.0 and 24 mM urea for J.B. and B.P. ureases, respectively. Nonlinear regression equations were used to determine the values of K I, K m, and V max in the Lineweaver-Burk plot and Dixon plots. The K i values dissociation constant/inhibition constant of J.B. urease-inhibitor or B.P. urease-inhibitor complex into free J.B. urease or B.P. urease and inhibitor was determined graphically by Dixon plot and Lineweaver-Burk plots.

[3] = biological target: Bacillus pasteurii urease (Sporosarcina pasteurii, UniProt P41020); assay: Urease assay and inhibition kinetics, Bacillus pasteurii urease; type: biochemical; set-up: Vmaxapp: unit not given here; conditions: for Kmapp: Km without inhibitor 5.1 mM; for Vmaxapp: Vmax without inhibitor 160
Protocol: as §1, §2, §3

[4] = Urease (BP), Dixon plot and secondary Lineweaver-Burk plot, pH 6.8, 30°C, read-out: Ki (µM) ± SEM

Bacillus pasteurii urease, sequence (P41021 whole entry): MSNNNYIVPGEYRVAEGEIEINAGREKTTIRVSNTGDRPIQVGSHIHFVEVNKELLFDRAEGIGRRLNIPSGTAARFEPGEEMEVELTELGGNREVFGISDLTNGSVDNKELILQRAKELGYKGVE
Bacillus pasteurii urease, sequence (P41022 whole entry, further chain): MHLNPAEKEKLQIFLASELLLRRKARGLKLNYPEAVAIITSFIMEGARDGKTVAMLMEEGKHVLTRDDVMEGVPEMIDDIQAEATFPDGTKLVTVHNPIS
Bacillus pasteurii urease, sequence (P41020 whole entry): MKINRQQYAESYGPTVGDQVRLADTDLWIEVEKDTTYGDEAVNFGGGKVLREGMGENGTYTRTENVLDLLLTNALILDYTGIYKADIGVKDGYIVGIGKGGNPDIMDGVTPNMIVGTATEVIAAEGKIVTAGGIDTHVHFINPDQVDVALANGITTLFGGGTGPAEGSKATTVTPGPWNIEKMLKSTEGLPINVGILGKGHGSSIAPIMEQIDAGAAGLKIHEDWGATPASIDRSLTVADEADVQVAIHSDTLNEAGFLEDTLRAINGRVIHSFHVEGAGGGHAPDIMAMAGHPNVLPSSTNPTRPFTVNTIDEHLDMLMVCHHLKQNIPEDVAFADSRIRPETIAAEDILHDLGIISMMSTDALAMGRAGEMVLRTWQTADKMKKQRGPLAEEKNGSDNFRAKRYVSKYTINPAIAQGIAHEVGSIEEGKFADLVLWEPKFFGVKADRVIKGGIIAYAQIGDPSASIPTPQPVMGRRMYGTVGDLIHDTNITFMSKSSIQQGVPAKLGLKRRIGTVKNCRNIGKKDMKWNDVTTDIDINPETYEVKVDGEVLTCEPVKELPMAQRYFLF
Jack bean urease, sequence (P07374 whole entry, looked up): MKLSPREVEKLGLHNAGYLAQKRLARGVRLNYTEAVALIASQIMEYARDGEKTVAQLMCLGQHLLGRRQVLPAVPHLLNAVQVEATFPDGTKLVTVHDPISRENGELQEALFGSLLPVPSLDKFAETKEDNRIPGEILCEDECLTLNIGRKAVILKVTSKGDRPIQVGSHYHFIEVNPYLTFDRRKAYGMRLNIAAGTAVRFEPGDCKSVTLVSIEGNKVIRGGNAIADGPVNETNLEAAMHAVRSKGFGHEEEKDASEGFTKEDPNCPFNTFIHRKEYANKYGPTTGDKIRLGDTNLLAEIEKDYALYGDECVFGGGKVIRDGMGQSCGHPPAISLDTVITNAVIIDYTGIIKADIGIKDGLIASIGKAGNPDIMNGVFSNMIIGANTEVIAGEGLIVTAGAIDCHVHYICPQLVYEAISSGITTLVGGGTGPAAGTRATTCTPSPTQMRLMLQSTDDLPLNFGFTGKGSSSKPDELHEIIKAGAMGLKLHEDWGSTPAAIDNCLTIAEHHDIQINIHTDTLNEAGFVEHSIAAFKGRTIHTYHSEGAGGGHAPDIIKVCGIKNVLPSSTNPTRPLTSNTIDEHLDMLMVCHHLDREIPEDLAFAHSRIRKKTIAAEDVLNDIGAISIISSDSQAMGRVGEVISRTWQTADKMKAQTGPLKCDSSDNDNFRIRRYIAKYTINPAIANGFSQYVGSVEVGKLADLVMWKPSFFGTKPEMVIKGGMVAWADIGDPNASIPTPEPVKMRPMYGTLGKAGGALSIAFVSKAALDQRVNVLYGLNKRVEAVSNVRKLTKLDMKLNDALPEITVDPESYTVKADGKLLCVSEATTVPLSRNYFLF

CC(c1c(O)c2ccccc2oc1=O)c1c(O)c2ccccc2oc1=O [compound 3]
Lemna Welv. phytotoxicity (growth inhibition) ([1]; conc. of compound 10 μg/mL): 6.4 | Lemna Welv. phytotoxicity (growth inhibition) ([1]; conc. of compound 100 μg/mL): 22.5 | Lemna Welv. phytotoxicity (growth inhibition) ([1]; conc. of compound 1000 μg/mL): 54.8 | viability at 200 µg/mL [2]: 100 ± 1% | Ki (Jack bean urease): 59.4 ± 0.1 µM | Type of inhibition (Jack bean urease): Competitive | Kmapp (Jack bean urease): 8.3 mM | Vmaxapp (Jack bean urease): 108 | Type of inhibition ([3]; Urease (BP)): Uncompetitive | Ki [3, 4]: 53 ± 0.01 µM | Kmapp ([3]; Urease (BP)): 4.0 mM | Vmaxapp ([3]; Urease (BP)): 115.3

O=c1oc2ccccc2c(O)c1C(c1cccnc1)c1c(O)c2ccccc2oc1=O [compound 10]
Lemna Welv. phytotoxicity (growth inhibition) ([1]; conc. of compound 10 μg/mL): 23.8 | Lemna Welv. phytotoxicity (growth inhibition) ([1]; conc. of compound 100 μg/mL): 47.6 | Lemna Welv. phytotoxicity (growth inhibition) ([1]; conc. of compound 1000 μg/mL): 57.14 | viability at 200 µg/mL [2]: 95.4 ± 5.2% | Ki (Jack bean urease): 68 ± 0.1 µM | Type of inhibition (Jack bean urease): Competitive | Kmapp (Jack bean urease): 10.6 mM | Vmaxapp (Jack bean urease): 105 | Type of inhibition ([3]; Urease (BP)): competitively | Ki [3, 4]: 63.6 ± 0.2 µM | Kmapp ([3]; Urease (BP)): 10.3 mM

COc1cccc(C(c2c(O)c3ccccc3oc2=O)c2c(O)c3ccccc3oc2=O)c1 [compound 1]
Lemna Welv. phytotoxicity (growth inhibition) ([1]; conc. of compound 10 μg/mL): 9.9 | Lemna Welv. phytotoxicity (growth inhibition) ([1]; conc. of compound 100 μg/mL): 60.3 | Lemna Welv. phytotoxicity (growth inhibition) ([1]; conc. of compound 1000 μg/mL): 80 | viability at 200 µg/mL [2]: 67.5 ± 3.1% | Ki (Jack bean urease): 19.3 ± 0.1 µM | Type of inhibition (Jack bean urease): Competitive | Kmapp (Jack bean urease): 5.6 mM | Vmaxapp (Jack bean urease): 109 | Type of inhibition ([3]; Urease (BP)): competitively; also recorded: Competitive | Ki [3, 4]: 15.5 ± 0.2 µM | Kmapp ([3]; Urease (BP)): 11.3 mM | Vmaxapp ([3]; Urease (BP)): 159.3

O=c1oc2ccccc2c(O)c1C(c1ccncc1)c1c(O)c2ccccc2oc1=O [compound 2]
Lemna Welv. phytotoxicity (growth inhibition) ([1]; conc. of compound 10 μg/mL): 6.5 | Lemna Welv. phytotoxicity (growth inhibition) ([1]; conc. of compound 100 μg/mL): 33 | Lemna Welv. phytotoxicity (growth inhibition) ([1]; conc. of compound 1000 μg/mL): 52.7 | viability at 200 µg/mL [2]: 85.1 ± 2.5% | Ki (Jack bean urease): 71 ± 0.3 µM | Type of inhibition (Jack bean urease): Competitive | Kmapp (Jack bean urease): 7.7 mM | Vmaxapp (Jack bean urease): 106 | Type of inhibition ([3]; Urease (BP)): Noncompetitive | Ki [3, 4]: 51.3 ± 0.4 µM | Kmapp ([3]; Urease (BP)): 5.2 mM | Vmaxapp ([3]; Urease (BP)): 98.0

O=c1oc2ccccc2c(O)c1C(c1c(O)c2ccccc2oc1=O)c1c[nH]c2ccccc12 [compound 9]
Lemna Welv. phytotoxicity (growth inhibition) ([1]; conc. of compound 10 μg/mL): 41.66 | Lemna Welv. phytotoxicity (growth inhibition) ([1]; conc. of compound 100 μg/mL): 50.00 | viability at 200 µg/mL [2]: 100 ± 5.2% | Ki (Jack bean urease): 62.9 ± 0.5 µM | Type of inhibition (Jack bean urease): Competitive | Kmapp (Jack bean urease): 11.6 mM | Vmaxapp (Jack bean urease): 108 | Type of inhibition ([3]; Urease (BP)): Uncompetitive | Ki [3, 4]: 59.5 ± 0.2 µM | Kmapp ([3]; Urease (BP)): 3.2 mM | Vmaxapp ([3]; Urease (BP)): 97.2

O=c1oc2ccccc2c(O)c1C(c1cc[nH]c1)c1c(O)c2ccccc2oc1=O [compound 5]
Lemna Welv. phytotoxicity (growth inhibition) ([1]; conc. of compound 10 μg/mL): 9.00 | Lemna Welv. phytotoxicity (growth inhibition) ([1]; conc. of compound 100 μg/mL): 25.00 | Lemna Welv. phytotoxicity (growth inhibition) ([1]; conc. of compound 1000 μg/mL): 61.4 | viability at 200 µg/mL [2]: 100 ± 0.5% | Ki (Jack bean urease): 53.3 ± 0.4 µM | Type of inhibition (Jack bean urease): Competitive | Kmapp (Jack bean urease): 7.8 mM | Vmaxapp (Jack bean urease): 103 | Type of inhibition ([3]; Urease (BP)): Uncompetitive | Ki [3, 4]: 68.1 ± 0.3 µM | Kmapp ([3]; Urease (BP)): 3.9 mM | Vmaxapp ([3]; Urease (BP)): 93.7 | selectivity between B.P. urease and J.B. urease ([3]; comparison of potency against both ureases): selective for J.B. uraese

O=c1oc2ccccc2c(O)c1C(/C=C/c1ccccc1)c1c(O)c2ccccc2oc1=O [compound 8]
Lemna Welv. phytotoxicity (growth inhibition) ([1]; conc. of compound 10 μg/mL): 13.00 | Lemna Welv. phytotoxicity (growth inhibition) ([1]; conc. of compound 100 μg/mL): 22.99 | Lemna Welv. phytotoxicity (growth inhibition) ([1]; conc. of compound 1000 μg/mL): 70.0 | viability at 200 µg/mL [2]: 100 ± 5.2% | Ki (Jack bean urease): 21.5 µM | Type of inhibition (Jack bean urease): Competitive | Kmapp (Jack bean urease): 7.5 mM | Vmaxapp (Jack bean urease): 104 | Type of inhibition ([3]; Urease (BP)): competitively; also recorded: Competitive | Ki [3, 4]: 19 ± 0.1 µM | Kmapp ([3]; Urease (BP)): 7.7 mM | Vmaxapp ([3]; Urease (BP)): 161.7

O=c1oc2ccccc2c(O)c1Cc1c(O)c2ccccc2oc1=O [compound 7]
viability at 200 µg/mL [2]: 100 ± 4.3% | Ki (Jack bean urease): 15 ± 0.1 µM | Type of inhibition (Jack bean urease): Competitive | Kmapp (Jack bean urease): 7.6 mM | Vmaxapp (Jack bean urease): 102 | Ki [3]: 13.3 ± 0.2 µM | Type of inhibition ([3]; Urease (BP)): competitively; also recorded: Competitive | Kmapp ([3]; Urease (BP)): 9.9 mM | Vmaxapp ([3]; Urease (BP)): 162.5

CCCCC(c1c(O)c2ccccc2oc1=O)c1c(O)c2ccccc2oc1=O [compound 6]
Lemna Welv. phytotoxicity (growth inhibition) ([1]; conc. of compound 10 μg/mL): 10.60 | Lemna Welv. phytotoxicity (growth inhibition) ([1]; conc. of compound 100 μg/mL): 42.50 | Lemna Welv. phytotoxicity (growth inhibition) ([1]; conc. of compound 1000 μg/mL): 69.6 | viability at 200 µg/mL [2]: 45.5 ± 4% | Ki (Jack bean urease): 75 ± 0.1 µM | Type of inhibition (Jack bean urease): Competitive | Kmapp (Jack bean urease): 9.5 mM | Vmaxapp (Jack bean urease): 106 | Type of inhibition ([3]; Urease (BP)): competitively; also recorded: Competitive | Ki [3, 4]: 27.5 µM | Kmapp ([3]; Urease (BP)): 13.0 mM | Vmaxapp ([3]; Urease (BP)): 159.2

C/C=C/C(c1c(O)c2ccccc2oc1=O)c1c(O)c2ccccc2oc1=O [compound 4]
Lemna Welv. phytotoxicity (growth inhibition) ([1]; conc. of compound 10 μg/mL): 38.23 | Lemna Welv. phytotoxicity (growth inhibition) ([1]; conc. of compound 100 μg/mL): 100 | viability at 200 µg/mL [2]: 13.2 ± 4.2% | Ki (Jack bean urease): 65.9 µM | Type of inhibition (Jack bean urease): Competitive | Kmapp (Jack bean urease): 9.1 mM | Vmaxapp (Jack bean urease): 105 | Type of inhibition ([3]; Urease (BP)): Uncompetitive | Ki [3, 4]: 48.3 ± 0.01 µM | Kmapp ([3]; Urease (BP)): 3.8 mM | Vmaxapp ([3]; Urease (BP)): 101.0

Source: article PMC4176650 (BioMed Research International, 2014)
